Patent publication US20150087722A1, “TREATMENT FOR BREAST TUMOR CELL METASTASIS” (China Medical University, priority 2012, published 2015)
pIC50: −log10 of the molar value.

Tests used:
[1] = tested on: ROS content in breast tumor cells MDA-MB-453; test: reactive oxygen species method; assay type: cell-based, human; conditions: 40 μM
Description: In FIG. 12, the reactive oxygen species method was used to detect the effect of increased treatment doses of the compound II on the ROS content in breast tumor cells, and a photograph was taken at a 200× field under the fluorescence microscope. In the intracellular reactive oxygen species method, the cells were planted in a 24-well plate (5×10^4 cells/well). The next day after the cells were adhered to the wall, the cells were cultured in a serum free DMEM culture medium at an atmosphere of 5% CO2 in an incubator at 37° C. for 12 h. The compound II was added into the 1% FBS-DMEM culture medium, and the cells were cultured in the culture medium for 2 h. The cells were then washed with PBS. 100 ng/mL LPS was added to react with the cells, and then the cells were washed with PBS. […] The absorbance was measured by a fluorescence spectrometer, where the excitation wavelength was set as 485±20 nm, and the […] was set as 530±25 nm. […] Thus in the following the cells were treated with 40 μM the compound II and then the ROS content of cells was detected. […] FIG. 23 is a quantitative diagram showing the effect of increasing treatment time on the ROS content of breast tumor cells when the reactive oxygen species method was performed to detect the breast tumor cells treated with 40 μM the compound II. […]

[2] = tested on: MMP-2, MMP-9, uPA, uPAR, TIMP-1, TIMP-2, PAI-1 in breast tumor cells; test: western blotting of metastasis-related proteins; assay type: cell-based, human; conditions: 0.5, 1 and 2 μM, 24 h, with dose increasing
Description: The steps of western blotting include: washing cells with PBS twice at 4° C.; adding a lysis buffer and rubbing the cells by a rubbr policeman so as to lyse cells; putting the lysed cell solution into a 1.5 ml microcentrifuge tube and shaking for 1 min; centrifuging at 12000 rpm for 10 min and taking the supernatant; measuring concentration of the protein through a Bio-Rad protein assay kit; and storing the remained extracted protein solution at −70° C.; taking 100 μg protein solution and adding a SDS/protein loading buffer having the same volume, where the SDS/protein loading buffer has a concentration two times larger than the protein solution; boiling the mixture of the protein solution and the SDS/protein loading buffer at 100° C. for 10 min; cooling and loading the protein samples in each hole of gel; adjusting the voltage to 100 V and running the protein samples on the gel until the tracking dye in the sample buffer reaches the bottom of the gel; and subsequently transferring the protein from the gel using electrophoresis. […] Then luminescence image equipment was used, where the PVDF was placed onto a black metal plate by a plastic pincer and the face including protein was upwards, a 1:1 mixed Chemiluminesent Substrate was added into the membrane and the exposure time depends on the fluorescence intensity of antibodies. […]

[3] = tested on: breast tumor cells MDA-MB-453; test: MTT cell viability assay; assay type: cell-based, human; conditions: for cell viability: FIG. 24
Description: The breast tumor cells (MDA-MB-231, MDA-MB-435, MDA-MB-453, MDA-MB-468 and MCF-7) were commercially obtained from the bioresource collection and research center (BCRC), and were cultured in a 10% FBS-DMEM culture medium (i.e., a DMEM culture medium including 10% fetal bovine serum (FBS)). The human breast cell MCF-10A was cultured in a 5% FBS-DMEM culture medium (including F12, insulin, hydrocortisol and epidermal growth factor). An environment of 5% CO2 was kept in the incubator at a constant temperature of 37° C. When a certain number of cells were generated in culture, the culture medium was removed after being centrifuged for 10 min at a rate of 900 rpm. The culture medium was replaced in 24 h before the experiment, and the number of cells was counted by a hemocytometer.
The cell viability was determined by a method of […] (MTT assay). The test method for assaying cell viability refers to steps provided by Parada-Turska et al.
The breast tumor cells MDA-MB-231 were inoculated in a 24-well plate (2.5×10^5 cells/well), and the next day after cells were adhered to the wall of the plate, the cells were washed with PBS. 1% FBS-DMEM culture medium was then added so as to synchronize cells. The next day compound II having different concentrations were added into the wells, and the cells were subsequently cultured in an atmosphere of 5% CO2 at 37° C. for 24 h. The cells were washed with PBS once, and 400 μl MTT agent was added in each well so as to react for 4 h. Then 400 μl 10% SDS was added in each well so as to react for 12 h. 200 μl supernatant was taken from the well and then added into a 96-well microplate, so as to measure the absorbance at 570 nm.
In the MTT assay, the MDA-MB-453 cells were cultured in a culture medium including 5% fetal bovine serum-DMEM F12/insulin/hydrocortisol/epidermal growth factor. Then the cells were cultured at an atmosphere of 5% CO2 in an incubator at a constant temperature of 37° C. When a certain number of cells were generated in culture, the culture medium was removed after being centrifuged at 900 rmp for 10 min. The culture medium was replaced in 24 h before the experiment, and the number of cells was counted by a hemocytometer.

[4] = tested on: Rat Skin Tumor Cell (B16F10 cell strain); test: MTT cell viability assay; assay type: cell-based; conditions: Mus musculus, B16-F10

- pIC50 ([3]; Homo sapiens, viability, MDA-MB-453 cell strain, Table 1): 4.44
- pIC50 [4]: 4.69
Structure (SMILES): COC1=C(OC)C(=O)C(C)=C(C)C1=O [compound II]
- content of oxygen species compared with the control group [1]: higher
- expression amount of TIMP-1, TIMP-2 and PAI-1 [2]: increased
- expression of MMP-2, MMP-9, uPA and uPAR [2]: inhibited
- cell viability ([3]; 40 μM with 2.5 mM antioxidant NAC): recovered
- cell viability ([3]; 40 μM, compound only): half of that in the control group
- viability of breast tumor cells ([3]; MDA-MB-453, with increasing concentration, FIG. 21): inhibited significantly
